Measured values taken from US20210330611A1, “THERAPY FOR NEUROLOGICAL DISEASES/DISORDERS” (priority 2020, published 2021).
“And” between values parts separate entries of the source, which are not always exact repeats. Equal entries are not always repeated. Where two headings read alike, the source gives them in different places.

What was measured:
[1] = tested on: LPS-induced microglia activation; test: Image-based assay of LPS-induced microglia activation (HTS and dose response); type: cell-based, rat
[2] = tested on: fibrin- and LPS-induced microglia activation; test: cells; type: cell-based, rat; settings: for Activity: Table 7, fib = fibrin, LPS, tox = toxicity; for inhibition at 10 µM: Rattus norvegicus, Microglia
[3] = tested on: primary rat microglia; test: Cell toxicity (dead cells, size <150 μm2) in coated fibrin (cFib) assay; settings: primary microglia HTS;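 further: share of dead cells sized under 150 µm2 at 10 µM in fibrin-stimulated microglia HTS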
[4] = tested on: fibrin-induced microglia activation; test: Image-based assay of fibrin-induced microglia activation (HTS and dose response); type: cell-based, rat; settings: for inhibition at 10 µM / IC50: Rattus norvegicus, Microglia; for inhibition at 10 µM: read-out: Fibrin % inhibition
[5] = primary microglia HTS, LPS stimulation, compounds at 10 μM; 10 µM
[6] = classification by fibrin and LPS inhibition, HTS at 10 μM
[7] = fibrin assay, dead cells (size <150 μm2), compounds at 10 μM
[8] = quadrant by fibrin and LPS inhibition, HTS at 10 μM
[9] = fibrin assay, dead cells (size <150 μm2)
[10] = Rattus norvegicus, Microglia, primary microglia HTS, LPS stimulation, compounds at 10 μM; read-out: LPS % inhibition
[11] = classification by fibrin and LPS inhibition in HTS
[12] = Rattus norvegicus, Microglia, read-out: LPS % inhibition
[13] = primary microglia HTS, fibrin stimulation, cell size >800 μm2 as marker of activation
[14] = Rattus norvegicus, Microglia, 48 h, read-out: LPS % inhibition
[15] = quadrant by fibrin and LPS inhibition in HTS of 1907 compounds
[16] = primary HTS, 10 μM, LPS-stimulated primary microglia
[17] = primary HTS, 10 μM, fibrin-stimulated primary microglia
[18] = HTS of 1907 compounds, quadrant by fibrin and LPS inhibition
[19] = primary microglia HTS, 10 μM, fibrin-stimulated, cell size >800 μm^2 as marker of activation
[20] = primary microglia HTS, fibrin stimulation, compounds at 10 μM
[21] = Rattus norvegicus, Microglia, Table 7; read-out: LPS_IC50

COc1ccc2[nH]c([S+]([O-])Cc3ncc(C)c(OC)c3C)nc2c1 (stereo not shown) [Esomeprazole; Omeprazole] was tested, and the LPS % inhibition [1, 5] was 24% and 13%, the “Quadrant (FIG. 5b)” value [2, 6] was “Q4” and the “Fibrin % cell toxicity” value [3, 7] was 0% and 1%.

With O=C1CN2Cc3c(ccc(Cl)c3Cl)N=C2N1 [Anagrelide] the “Quadrant (FIG. 5b)” value [2, 8] was “Q4” and the “Fibrin % cell toxicity” value [3, 9] was 1%.

In the case of CCN(CC)C(=O)/C(C#N)=C/c1cc(O)c(O)c([N+](=O)[O-])c1 [Entacapone], the inhibition at 10 µM [1, 10] is reported as 11%, the LPS % inhibition [1, 5] is reported as 17% and the “Quadrant (FIG. 5b)” value [2, 6] is reported as “Q4”. The “Fibrin % cell toxicity” value [3, 7] was 1%.

With C[C@@H]1CN(c2c(F)c(N)c3c(=O)c(C(=O)O)cn(C4CC4)c3c2F)C[C@H](C)N1 [Sparfloxacin] the inhibition at 10 µM ([1]; Rattus norvegicus, Microglia, 48 h; read-out: LPS % inhibition) was 11%, the “Quadrant (FIG. 5b)” value [2, 11] was “Q4” and the “Fibrin % cell toxicity” value ([3]; fibrin stimulation, cell size <150 μm2 as marker of toxicity) was 0% and 1%.

With C[C@H]1O[C@@H](O[C@H]2[C@@H](O)C[C@H](O[C@H]3[C@@H](O)C[C@H](O[C@H]4CC[C@@]5(C)[C@H](CC[C@@H]6[C@@H]5CC[C@]5(C)[C@@H](C7=CC(=O)OC7)CC[C@]65O)C4)O[C@@H]3C)O[C@@H]2C)C[C@H](O)[C@@H]1O [Digitoxin] the “Quadrant (FIG. 5b)” value [2, 6] was “Q4” and the “Fibrin % cell toxicity” value [3, 7] was 1%.

With CN(C)C(=O)Oc1cc(OC(=O)N(C)C)cc(C(O)CNC(C)(C)C)c1 (stereo not shown) [Bambuterol] the inhibition at 10 µM [1, 10] was 9%, the LPS % inhibition [1, 5] was 13% and the “Quadrant (FIG. 5b)” value [2, 8] was “Q4”. The “Fibrin % cell toxicity” value [3, 9] was 1%.

With C#C[C@]1(OC(C)=O)CC[C@H]2[C@@H]3CCC4=C[C@@H](OC(C)=O)CC[C@@H]4[C@H]3CC[C@@]21C [Ethynodiol Diacetate] the “Quadrant (FIG. 5b)” value [2, 6] was “Q4” and the “Fibrin % cell toxicity” value [3, 7] was 1%.

In the case of CC1=C(/C=C/C(C)=C/C=C/C(C)=C/C=C/C=C(C)/C=C/C=C(C)/C=C/C2=C(C)CCCC2(C)C)C(C)(C)CCC1 [Beta-carotene], the inhibition at 10 µM [1, 12] is reported as -3%, the “Quadrant (FIG. 5b)” value [2] is reported as “Q4” and the inhibition at 10 µM [4] is reported as -15%.

Spiramycin was tested, and the LPS % inhibition [1] was 14%, the “Quadrant (FIG. 5b)” value [2, 11] was “Q4” and the Fibrin % inhibition [4, 13] was 17%.

In the case of CCN(CC)CC(=O)Nc1c(C)cccc1C [Lidocaine], the inhibition at 10 µM [1, 14] is reported as 8%, the “Quadrant (FIG. 5b)” value [2] is reported as “Q4” and the inhibition at 10 µM [4] is reported as -23%.

For C#CC1(O)CC[C@H]2[C@@H]3CCC4=CC(=O)CC[C@@H]4[C@H]3CC[C@@]21CC (stereo partly shown) [Norgestrel], the inhibition at 10 µM ([1]; Rattus norvegicus, Microglia, 48 h, primary microglia HTS, LPS stimulation; increased cell size (>800 μm^2) as marker of activation; read-out: LPS % inhibition) was 22%, the “Quadrant (FIG. 5b)” value [2, 15] was “Q4” and the inhibition at 10 µM ([4]; primary microglia HTS, fibrin stimulation, increased cell size (>800 μm^2) as marker of activation) was 4%.

In the case of CCCCCCCCCCCCCCCC(=O)O[C@@H]1[C@@H](O)[C@@H](O)[C@@H]([C@H](NC(=O)[C@@H]2C[C@@H](CCC)CN2C)[C@H](C)Cl)O[C@@H]1SC.Cl [Clindamycin Palmitate Hydrochloride], the LPS % inhibition [1, 16] is reported as 11%, the “Quadrant (FIG. 5b)” value ([2]; primary HTS, 10 μM) is reported as “Q4” and the Fibrin % inhibition [4, 17] is reported as −23%.

With CCC1=C[C@@H]2CN(C1)Cc1c([nH]c3ccccc13)[C@@](C(=O)OC)(c1cc3c(cc1OC)N(C)[C@H]1[C@@](O)(C(=O)OC)[C@H](OC(C)=O)[C@]4(CC)C=CCN5CC[C@]31[C@@H]54)C2 [Vinorelbine] the inhibition at 10 µM ([1]; Rattus norvegicus, Microglia, primary microglia HTS, 10 μM, LPS-stimulated, cell size >800 μm^2 as marker of activation; read-out: LPS % inhibition) was -11%, the inhibition at 10 µM [1, 10] was 106% and the “Quadrant (FIG. 5b)” value [2, 18] was “Q4”. For the same compound, the “Quadrant (FIG. 5b)” value [2, 8] was “Q2”, the inhibition at 10 µM [4, 19] was -12% and the inhibition at 10 µM [4, 20] was 108%.

CCOP(=S)(OCC)Oc1ccc2c(C)c(Cl)c(=O)oc2c1 [Coumophos] was tested, and the LPS % inhibition ([1]; primary microglia HTS, LPS stimulation, compounds at 10 μM) was 16%, the “Quadrant (FIG. 5b)” value [2, 6] was “Q4” and the Fibrin % inhibition [4, 20] was −12%.

In the case of O=C(O)c1cccnc1 [Niacin], the inhibition at 10 µM [1, 14] is reported as 13%, the “Quadrant (FIG. 5b)” value [2] is reported as “Q4” and the inhibition at 10 µM [4] is reported as 8%.

In the case of CO[C@@H]1C[C@@H](C[C@H]2CC[C@H](C)[C@H]([C@@H](C)C(=O)O)O2)O[C@]2(O[C@](C)([C@H]3CC[C@@](C)([C@@H]4O[C@@H]([C@H]5O[C@@](O)(CO)[C@H](C)C[C@@H]5C)C[C@@H]4C)O3)C[C@H]2C)[C@@H]1C [nigericin sodium], the IC50 [1, 21] is reported as 0.065 µM, the Activity [2] is reported as “fib/LPS” and the IC50 ([4]; Table 7, read-out: fib_IC50) is reported as 0.206 µM.

For C[C@@H]1C[C@H]2[C@@H]3C[C@H](F)C4=CC(=O)C=C[C@]4(C)[C@@]3(F)[C@@H](O)C[C@]2(C)[C@@]1(O)C(=O)CO [Flumethasone, reference compound], the inhibition at 10 µM [1, 14] was 101%, the IC50 ([1]; Rattus norvegicus, Microglia, 48 h, read-out: LPS IC50) was less than 0.001 µM and the IC50 ([1]; Rattus norvegicus, Microglia, read-out: LPS IC50 (uM)) was less than 0.001 µM. For the same compound, the IC50 ([1]; Rattus norvegicus, Microglia, read-out: LPS IC50 (uM) (Suppl. Table 7)) was less than 0.001 µM, the “Quadrant (FIG. 5b)” value [2] was “Q2” and the inhibition at 10 µM ([2]; read-out: Cherry-picked Hit (Suppl. Table 7)) was greater than 50%. The inhibition at 10 µM ([2]; read-out: Hit) was greater than 50%, the IC50 ([4]; 48 h, read-out: Fibrin IC50) was less than 0.001 µM and the inhibition at 10 µM [4] was 109%. The IC50 ([4]; read-out: Fibrin IC50 (uM)) was less than 0.001 µM and the IC50 ([4]; read-out: Fibrin IC50 (uM) (Suppl. Table 7)) was less than 0.001 µM.

For O=C1O[C@H]([C@@H](O)CO)C(O)=C1O [Vitamin C], the LPS % inhibition ([1]; primary microglia HTS, 10 μM, LPS-stimulated, cell size >800 μm^2 as marker of activation) was 18%, the “Quadrant (FIG. 5b)” value [2, 18] was “Q4” and the Fibrin % inhibition [4, 19] was −28%.

In the case of COc1ccc2c(c1OC)C(=O)O[C@@H]2[C@H]1c2cc3c(cc2CCN1C)OCO3 [Hydrastine (1r,9s)], the LPS % inhibition ([1]; primary microglia HTS, LPS stimulation, activation = cell size >800 μm2) is reported as 10%, the “Quadrant (FIG. 5b)” value [2, 15] is reported as “Q4” and the Fibrin % inhibition ([4]; primary microglia HTS, fibrin stimulation, activation = cell size >800 μm2) is reported as −27%.

For CCN1C(=O)NC(c2ccccc2)C1=O (stereo not shown) [Ethotoin], the inhibition at 10 µM [1, 10] was 12%, the “Quadrant (FIG. 5b)” value [2, 6] was “Q4” and the inhibition at 10 µM [4, 20] was -36%.

COC(=O)C1=CCCN(C)C1 [Arecoline] was tested, and the inhibition at 10 µM [1, 10] was 14%, the “Quadrant (FIG. 5b)” value [2, 8] was “Q4” and the inhibition at 10 µM [4, 20] was 17%.

For COc1cc([C@@H]2c3cc4c(cc3[C@H](O)[C@H]3COC(=O)[C@H]23)OCO4)cc(OC)c1OC [Podofilox, reference compound], the IC50 [1, 21] was 0.002 µM, the “Quadrant (FIG. 5b)” value ([2]; Table 2, screen at 10 μM) was “Q2” and the Activity [2] was “fib/LPS”. For the same compound, the IC50 ([4]; Table 7, read-out: fib_IC50) was 0.014 µM.

With Cc1cc2nc3c(=O)[nH]c(=O)nc-3n(C[C@H](O)[C@H](O)[C@H](O)COP(=O)([O-])O)c2cc1C.[Na+] [Riboflavin 5-phosphate Sodium] the LPS % inhibition [1] was 24%, the “Quadrant (FIG. 5b)” value [2, 11] was “Q4” and the Fibrin % inhibition [4, 13] was 11%.

With C[C@]12CCC(=O)C=C1CC[C@@H]1[C@@H]2C(=O)C[C@@]2(C)[C@H]1CC[C@]2(O)C(=O)CO [Cortisone] the LPS % inhibition [1, 16] was 44%, the “Quadrant (FIG. 5b)” value ([2]; primary HTS, 10 μM) was “Q4” and the Fibrin % inhibition [4, 17] was 37%.

NC(N)=Nc1nc(CSCCC(N)=NS(N)(=O)=O)cs1 [Famotidine] was tested, and the inhibition at 10 µM [1, 12] was 9%, the “Quadrant (FIG. 5b)” value [2] was “Q4” and the inhibition at 10 µM [4] was -82%.

For CN1[C@@H]2C[C@@H](OC(=O)[C@H](CO)c3ccccc3)C[C@H]1[C@@H]1O[C@@H]12 [Scopolamine], the LPS % inhibition [1] was −6%, the “Quadrant (FIG. 5b)” value [2] was “Q4” and the Fibrin % inhibition [4] was −26%.

Nc1nc2ccc(OC(F)(F)F)cc2s1 [Riluzole] was tested, and the inhibition at 10 µM [1, 14] was 7%, the “Quadrant (FIG. 5b)” value [2] was “Q4” and the inhibition at 10 µM [4] was 0%.

NCCCC[C@H](N[C@@H](CCc1ccccc1)C(=O)O)C(=O)N1CCC[C@H]1C(=O)O [Lisinopril] was tested, and the inhibition at 10 µM [1, 14] was 3%, the “Quadrant (FIG. 5b)” value [2] was “Q4” and the inhibition at 10 µM [4] was 1%.

In the case of C[C@@H]1[C@H](O)[C@@H](C)/C=C/C=C/C=C/C=C/C=C/C=C/C=C/[C@H](O[C@@H]2O[C@H](C)[C@@H](O)[C@H](N)[C@@H]2O)C[C@@H]2O[C@](O)(C[C@@H](O)C[C@@H](O)[C@H](O)CC[C@@H](O)C[C@@H](O)CC(=O)O[C@H]1C)C[C@H](O)[C@H]2C(=O)O [Amphotericin B], the “Quadrant (FIG. 5b)” value [2, 8] is reported as “Q4” and the “Fibrin % cell toxicity” value [3, 9] is reported as 1%.

With O=C(CCCN1CCN(c2ccccn2)CC1)c1ccc(F)cc1 [Azaperone] the inhibition at 10 µM [1, 10] was 12%, the “Quadrant (FIG. 5b)” value [2, 8] was “Q4” and the inhibition at 10 µM [4, 20] was -4%.

In the case of CC/C(=C(\c1ccccc1)c1ccc(OCCN(C)C)cc1)c1ccccc1 [Tamoxifen], the inhibition at 10 µM [1, 12] is reported as 5%, the “Quadrant (FIG. 5b)” value [2] is reported as “Q4” and the inhibition at 10 µM [4] is reported as 14%.

CC(N)C(O)c1ccccc1 (stereo not shown) [Phenylpropanolamine] was tested, and the inhibition at 10 µM [1, 14] was -6%, the “Quadrant (FIG. 5b)” value [2] was “Q4” and the inhibition at 10 µM [4] was -2%.
